Data: US4952580A, “Pesticidal polyhaloalkene derivatives” (priority 1988, dated 1990)
Read-outs that look alike come from different tables or passages of the source.

What was measured:
[1] = tested on: stunt nematode; assay: Stunt Nematode Test; format: in vivo
[2] = tested on: cyst nematode; assay: Cyst Nematode Test; format: in vivo; settings: Table 6; rate 5 ppm; read-out: Percent Control
Experimental: Compounds of this invention were tested as follows for nematicidal and anthelmintic activity as dust formulations (initial and residual activity) and as acetone/water formulations (systemic activity). The formulations are described above.
The procedures was substantially the same as described in the stunt nematode test except soybean seedlings were used. "Percent Control" (Table 6 appended) is as defined in the stunt nematode test results.

[3] = tested on: root-knot nematode; assay: Systemic Activity (basipetal, foliar spray) against root-knot nematode; format: in vivo, Meloidogyne incognita; settings: 336 h, read-out: Percent Control; for pest or weed control at 2000 ppm: Table 8, rate 2000 ppm
In short: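 Tomato plants at 4-6 true leaves were foliar-sprayed with compound in water/acetone, soil covered, then kept 3 days at 25° C before soil inoculation with nematodes. After about two weeks, root galling versus untreated controls was scored as Knot Index and Percent Control.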

[4] = tested on: root-knot nematode (Meloidogyne incognita); assay: Initial Root-Knot Nematicidal Activity; format: in vivo; settings: 336 h, read-out: Percent Control; for pest or weed control at 0.078 ppm: Table 2, Application Rate 0.078 ppm; for pest or weed control at 0.156 ppm: Table 2, Application Rate 0.156 ppm; for pest or weed control at 2.5 ppm: Table 2, Application Rate 2.5 ppm
In short: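 Compound incorporated into Meloidogyne incognita-infested soil at 10 ppm to 0.078 ppm, then planted with tomato or cucumber seedlings. Root galling scored two weeks after planting as a knot index and converted to percent control, given as averages.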

[5] = tested on: Caenorhabditis elegans; assay: C. Elegans Nematode Screening Test and Evaluation (in-vitro); settings: Caenorhabditis elegans; for inhibition at 5 ppm / inhibition at 1.25 ppm / inhibition at 2.5 ppm: read-out: Percent Inhibition of Reproduction; for mortality at 5 ppm / mortality at 1.25 ppm / mortality at 2.5 ppm: read-out: Percent Mortality
In short: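 Worms (10-15 per well) in buffer with E. coli food, ampicillin and mycostatin; compound added in DMSO, 2-3 replicates per rate. Incubated 5-6 days at 20° C. Population development scored against untreated wells, noting effects such as reduced egg hatch or molting disruption.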

[6] = tested on: root-knot nematode; assay: Soil Mobility against root-knot nematode; format: in vivo, Meloidogyne incognita; settings: 336 h, Table 7a, 5% dust, 5 ppm, read-out: Percent Control
In short: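 Soil mobility of the nematicidal test material was evaluated by placing treated, nematode-infested soil in 8 cm plastic pots stacked above two or more pots of untreated infested soil, each containing a 10 cm^3 sand layer and filter paper discs. Fifteen cm of water was dripped through, pots drained 16-18 hours, then were planted with cucumber or tomato seedlings and scored for Percent Control.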

[7] = tested on: root-knot nematode; assay: Residual Root-Knot Nematicidal Activity; format: in vivo, Meloidogyne incognita; settings: read-out: Percent Control
In short: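 Soil received 5% dust formulation at 5 and 10 ppm test compound and was held in a greenhouse, then infested with root-knot nematode eggs and larvae at 1, 2 and 4 weeks post-treatment. Cucumber or tomato seedlings were planted and scored about two weeks after infestation for Knot Index and Percent Control.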

[8] = tested on: lesion nematode; assay: Lesion Nematode Test; format: in vivo; settings: read-out: Percent Control
In short: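 Run as the stunt nematode test but on pea seedlings; compounds applied as dust formulations (initial and residual activity) or acetone/water formulations (systemic activity), with untreated samples as reference. Percent control derived by formula.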

[9] = tested on: corn seedling; assay: Phytotoxicity noted in Stunt Nematode Test; format: in vivo; parameters: key: *: Some phytotoxicity; settings: Table 4a; rate 5 ppm
From the text: The procedure was substantially the same as in the initial root-knot nematode tests described above except that rates of application of formulated compound were 2.5 and 5 ppm in soil containing a corn seedling, with subsequent inoculation of the soil with combined larvae and adult stunt nematodes. The samples were evaulated approximately four weeks after infestation. The results (Tables 4 and 4a appended) indicate good control at the test application rates as compared with untreated samples where no control was observed. "Percent control" means the difference between average population counts between untreated and treated samples, divided by average population count of untreated sample, multiplied by 100.

[10] = tested on: cucumber or tomato seedling; assay: Phytotoxicity noted in Soil Mobility test; format: in vivo; parameters: key: *: Some phytotoxicity; settings: Table 7a, 5% dust, 5 ppm
From the text: The ability of nematicidal compounds of the invention to move through nematode-infested soil […] infested soil, and subsequently eluting the soil with 15 cm of water (equivalent to 15 cm of rainfall) into a series of two or more pots of untreated, but nematode-infested, soil. Specifically, the pots were 8 cm diameter plastic pots containing a 10 cm^3 layer of sand over a coarse grade filter paper disc. Sufficient soil was placed over the sand to fill the pots, and a second filter paper disc was placed over the soil. Each test compound-treated pot was nested over a series of two or more pots containing untreated, but nematode-infested soil, also containing sand filter paper discs as described for the treated soil pots. Fifteen cm of water was slowly dripped into the top pots and the pots were allowed to drain for 16-18 hours to remove excess water. The top filter of each pot was then removed and the pots were planted with a cucumber or tomato seedling. […] "Knot Index" and "Percent Control" are as defined in the initial root-knot nematode tests above.

[11] = 672 h, Table 4a; rate 5 ppm; read-out: Percent Control
[12] = Table 2, Application Rate 0.312 ppm
[13] = Table 2, Application Rate 1.25 ppm
[14] = 168 h, Table 3a, 5% dust, 5 ppm, inoculation 1 week post-treatment
[15] = 336 h, Table 3a, 5% dust, 5 ppm, inoculation 2 weeks post-treatment
[16] = 672 h, Table 3a, 5% dust, 5 ppm, inoculation 4 weeks post-treatment
[17] = Table 2, Application Rate 0.625 ppm

SMILES: O=[N+]([O-])c1ccc(CSc2nnc(SCCC(F)=C(F)F)s2)cc1 [Compound 35, 2-(4-nitrophenylmethylthio)-5-(3,4,4-trifluoro-3-butenylthio)-1,3,4-thiadiazole]
- pest or weed control at 5 ppm [1, 11]: 77%
- pest or weed control at 5 ppm [2]: 0%
- pest or weed control at 2000 ppm ([3]; foliar): 0%
- pest or weed control at 0.078 ppm [4]: 0%
- pest or weed control at 0.156 ppm [4]: 6%
- pest or weed control at 0.312 ppm [4, 12]: 67%
- pest or weed control at 1.25 ppm [4, 13]: 98%
- pest or weed control at 2.5 ppm [4]: 100%
- inhibition at 5 ppm ([5]; Table 9 screen): 100%
- mortality at 5 ppm ([5]; Table 9 screen): 100%
- mortality at 5 ppm ([5]; Table 10 evaluation): 100%
- inhibition at 1.25 ppm ([5]; Table 10 evaluation): 100%
- mortality at 1.25 ppm ([5]; Table 10 evaluation): 100%
- inhibition at 2.5 ppm ([5]; Table 10 evaluation): 100%
- mortality at 2.5 ppm ([5]; Table 10 evaluation): 100%
- pest or weed control at 5 ppm ([6]; BOTTOM container): 0%
- pest or weed control at 5 ppm ([6]; MIDDLE container): 50%
- pest or weed control at 5 ppm ([6]; TOP container): 99%
- pest or weed control at 5 ppm [7, 14]: 99%
- pest or weed control at 5 ppm [7, 15]: 96%
- pest or weed control at 5 ppm [7, 16]: 84%

SMILES: C=CCSc1nnc(SCCC(F)=C(F)F)s1 [Compound 31, 2-(2-propenylthio)-5-(3,4,4-trifluoro-3-butenylthio)-1,3,4-thiadiazole]
- pest or weed control at 5 ppm [1, 11]: 52%
- pest or weed control at 2.5 ppm ([8]; Table 5, rate 2.5 ppm): 11%
- pest or weed control at 5 ppm [2]: 7%
- pest or weed control at 1250 ppm ([3]; foliar, Table 8, rate 1250 ppm): 0%
- pest or weed control at 2000 ppm ([3]; foliar): 71%
- pest or weed control at 0.078 ppm [4]: 0%
- pest or weed control at 0.156 ppm [4]: 13%
- pest or weed control at 0.625 ppm [4, 17]: 78%
- pest or weed control at 1.25 ppm [4, 13]: 96%
- pest or weed control at 2.5 ppm [4]: 99%
- inhibition at 5 ppm ([5]; Table 9 screen): 38%
- mortality at 5 ppm ([5]; Table 9 screen): 0%
- pest or weed control at 5 ppm ([6]; BOTTOM container): 50%
- pest or weed control at 5 ppm ([6]; MIDDLE container): 86%
- pest or weed control at 5 ppm ([6]; TOP container): 98%
- pest or weed control at 5 ppm [7, 14]: 97%
- pest or weed control at 5 ppm [7, 15]: 97%
- pest or weed control at 5 ppm ([7]; 672 h): 95%

SMILES: FC(F)=C(F)CCSc1nnc(Cc2ccccc2)o1 [Compound 42, 2-phenylmethyl-5-(3,4,4-trifluoro-3-butenylthio)-1,3,4-oxadiazole]
- pest or weed control at 5 ppm [1, 11]: 76%
- pest or weed control at 5 ppm ([1]; 672 h; Table 4a; rate 5 ppm; read-out: Percent Control): 33%
- pest or weed control at 2.5 ppm ([8]; Table 5, rate 2.5 ppm): 82%
- pest or weed control at 2.5 ppm [8]: 73%
- pest or weed control at 5 ppm [2]: 30%
- pest or weed control at 0.078 ppm [4]: 38%
- pest or weed control at 0.156 ppm [4]: 50%
- pest or weed control at 0.312 ppm [4, 12]: 86%
- pest or weed control at 0.625 ppm [4, 17]: 98%
- pest or weed control at 1.25 ppm [4, 13]: 98%
- pest or weed control at 2.5 ppm [4]: 100%
- pest or weed control at 5 ppm ([6]; BOTTOM container): 100%
- pest or weed control at 5 ppm ([6]; MIDDLE container): 100%
- pest or weed control at 5 ppm ([6]; TOP container): 100%
- pest or weed control at 5 ppm [7, 14]: 99%
- pest or weed control at 5 ppm [7, 15]: 97%
- pest or weed control at 5 ppm [7, 16]: 0%
- Some phytotoxicity [9]: *

SMILES: FC(F)=C(F)CCSc1nnc(-c2cccc(Cl)c2)o1 [Compound 48, 2-(3-chlorophenyl)-5-(3,4,4-trifluoro-3-butenylthio)-1,3,4-oxadiazole]
- pest or weed control at 5 ppm [1, 11]: 82%
- pest or weed control at 2.5 ppm ([8]; Table 5, rate 2.5 ppm): 85%
- pest or weed control at 5 ppm [2]: 86%
- pest or weed control at 2500 ppm ([3]; Table 8, rate 2500 ppm): 33%
- pest or weed control at 2000 ppm ([3]; foliar): 50%
- pest or weed control at 0.078 ppm [4]: 6%
- pest or weed control at 0.156 ppm [4]: 38%
- pest or weed control at 0.312 ppm [4, 12]: 64%
- pest or weed control at 0.625 ppm [4, 17]: 78%
- pest or weed control at 2.5 ppm [4]: 98%
- pest or weed control at 0.625 ppm [4]: 87%
- pest or weed control at 1.25 ppm [4]: 95%
- inhibition at 5 ppm ([5]; Table 9 screen): 100%
- mortality at 5 ppm ([5]; Table 9 screen): 88%
- mortality at 5 ppm ([5]; Table 10 evaluation): 100%
- inhibition at 1.25 ppm ([5]; Table 10 evaluation): 17%
- mortality at 1.25 ppm ([5]; Table 10 evaluation): 0%
- inhibition at 2.5 ppm ([5]; Table 10 evaluation): 25%
- mortality at 2.5 ppm ([5]; Table 10 evaluation): 0%
- pest or weed control at 5 ppm [7, 14]: 97%
- pest or weed control at 5 ppm [7, 15]: 97%
- pest or weed control at 5 ppm [7, 16]: 69%
- Some phytotoxicity ([10]; TOP container): *

SMILES: FC(F)=C(F)CCSc1nnc(Cc2ccc(F)cc2)o1 [Compound 45, 2-(4-fluorophenylmethyl)-5-(3,4,4-trifluoro-3-butenylthio)-1,3,4-oxadiazole]
- pest or weed control at 5 ppm [1, 11]: 80%
- pest or weed control at 2.5 ppm ([8]; Table 5, rate 2.5 ppm): 41%
- pest or weed control at 0.625 ppm [4, 17]: 99%
- pest or weed control at 1.25 ppm [4, 13]: 99%
- pest or weed control at 2.5 ppm [4]: 99%
- pest or weed control at 0.312 ppm [4]: 95%
- inhibition at 5 ppm ([5]; Table 9 screen): 25%
- mortality at 5 ppm ([5]; Table 9 screen): 0%
- pest or weed control at 5 ppm ([6]; BOTTOM container): 83%
- pest or weed control at 5 ppm ([6]; MIDDLE container): 97%
- pest or weed control at 5 ppm ([6]; TOP container): 98%
- pest or weed control at 5 ppm [7, 14]: 99%
- pest or weed control at 5 ppm [7, 15]: 100%
- pest or weed control at 5 ppm [7, 16]: 98%
- Some phytotoxicity [9]: *

SMILES: FC(F)=C(F)CCSc1nnc(Cc2ccc(F)cc2F)o1 [Compound 46, 2-(2,4-difluorophenylmethyl)-5-(3,4,4-trifluoro-3-butenylthio)-1,3,4-oxadiazole]
- pest or weed control at 5 ppm [1, 11]: 65%
- pest or weed control at 2.5 ppm ([8]; Table 5, rate 2.5 ppm): 77%
- pest or weed control at 0.312 ppm [4, 12]: 85%
- pest or weed control at 0.625 ppm [4, 17]: 98%
- pest or weed control at 1.25 ppm [4, 13]: 98%
- pest or weed control at 2.5 ppm [4]: 99%
- pest or weed control at 5 ppm ([6]; BOTTOM container): 78%
- pest or weed control at 5 ppm ([6]; MIDDLE container): 97%
- pest or weed control at 5 ppm ([6]; TOP container): 96%
- pest or weed control at 5 ppm [7, 14]: 99%
- pest or weed control at 5 ppm [7, 15]: 100%
- pest or weed control at 5 ppm [7, 16]: 99%
- Some phytotoxicity [9]: *

SMILES: CCCc1nnc(SCCC(F)=C(F)F)o1 [Compound 41, 2-propyl-5-(3,4,4-trifluoro-3-butenylthio)-1,3,4-oxadiazole]
- pest or weed control at 5 ppm [1, 11]: 29%
- pest or weed control at 2.5 ppm ([8]; Table 5, rate 2.5 ppm): 64%
- pest or weed control at 5 ppm [2]: 0%
- pest or weed control at 2000 ppm [3]: 17%
- pest or weed control at 0.078 ppm [4]: 31%
- pest or weed control at 0.156 ppm [4]: 84%
- pest or weed control at 0.625 ppm [4, 17]: 98%
- pest or weed control at 1.25 ppm [4, 13]: 100%
- pest or weed control at 2.5 ppm [4]: 100%
- pest or weed control at 5 ppm ([6]; BOTTOM container): 8%
- pest or weed control at 5 ppm ([6]; MIDDLE container): 95%
- pest or weed control at 5 ppm ([6]; TOP container): 97%
- pest or weed control at 5 ppm [7, 14]: 97%
- pest or weed control at 5 ppm [7, 15]: 63%
- pest or weed control at 5 ppm [7, 16]: 6%
- Some phytotoxicity ([10]; MIDDLE container): *
- Some phytotoxicity ([10]; TOP container): *
